Values quoted from earlier work as cited in paper PMC10531095, “Photonics of Some Monomethine Cyanine Dyes in Solutions and in Complexes with Biomolecules” (International Journal of Molecular Sciences, 2023).

Tested on: ssDNA
Parameters: method as in PMID 15249599
Settings: ssDNA vs. dsDNA ref 62; cited from earlier work

CCCN(CCCN(C)C)c1cc(/C=C2/Sc3ccccc3N2C)c2ccccc2[n+]1-c1ccccc1 [SYBR Green I]
fluorescence increase with ssDNA, times lower than with dsDNA: about 11 times
